Assay results reported in patent US20120107428A1, “REPELLENTS FOR PESTIFEROUS SOCIAL WASPS” (Sterling International Inc., priority 2010, published 2012).
Structures can show the parent of a compound that is named as a salt.

Tests used:
[1] = test system: Yellowjackets (mainly Vespula pensylvanica (ca. 90%), plus V. vulgaris, V. germanica, and Dolichovespula maculata); experiment: Field trapping, Rescue W•H•Y traps baited with attractant AA/2MB: captures of yellowjackets; format: in vivo; conditions: for Mean/trap/visit ± SE Yellowjackets: attractant AA/2MB alone (row AA/2MB) or plus chemical, N 9; for reduction of trap catches of yellowjackets: Experiment 9
Method: (§1) Eleven field trapping experiments were carried out from late August to mid-October 2009 in residential and woody areas around Spokane, Wash., USA, mostly using the trap known by the designation Rescue® W•H•Y (except on one occasion that Rescue® Reusable Yellowjacket Traps were used for a natural food attractant; see below for details). The commercial W•H•Y trap has a top chamber and a bottom chamber and is described in U.S. Patent Application Publication No. 2009/0151228. The top chamber is baited with two attractants—one of which is a solid contained in a vial (2-methyl-1-butanol), and the other is a liquid mixed with water (acetic acid). The bottom chamber is baited with a liquid attractant (heptyl butyrate) poured onto a cotton pad. Separation of the two types of attractants (otherwise antagonistic to each other when released from the same chamber) in two chambers creates two focal attraction sources from one trap for different species of wasps, hornets, and yellowjackets. […] In a special occasion, the commercial Rescue® Reusable Yellowjacket Traps were each baited with 10 g of chopped bacon (loaded into a cartridge) as a natural protein food attractant. Traps were hung 1.5-2.0 m above the ground on either fences or tree branches ca. 5 m apart between each trap and at least 15 m between sets. For each trapping experiment, three sets of traps (i.e., three physical replicates of each treatment) were deployed with their initial trap positions within each set being randomized. To minimize positional effects and obtain more replications, wasp collections and trap re-randomization were carried out when 5-10 wasps were caught in the best traps. Each replicate lasted several days depending on wasp flight activity. Captured wasps were removed from the traps and kept in the zip-bags before returning to the laboratory for recording of the species, gender status, and catch. Repellent candidates (individuals or mixtures) were released from polyethylene bags (3×5 cm; with a fabric felt) with various thicknesses from 2-12 mil (see release rates listed in tables); they were employed inside the same trap chamber as the attractant.
(§2) Experiment 1 tested five individual essential oils (pennyroyal, lemongrass, peppermint, clove, and citronella) and two known mosquito repellents (i.e., major components of catnip oil), E/Z-nepetalactone and Z/E-nepetalactone plus a blank control against a mixture of attractant [acetic acid (AA) and 2-methyl-1-butanol (2 MB)] using the W•H•Y traps (both attractant and repellent candidates were released from the top chamber) from for eight consecutive days from August to early September. Experiment 2 tested nine individual essential oils (ylang ylang, vetiver, myrrh, patchouli, geranium, eucalyptus, camphor, spearmint, and wintergreen) plus a blank control against a mixture of attractant (AA+2 MB) using the W•H•Y traps (both attractant and repellent candidates were released from the top chamber) for eight consecutive days from late August to early September. Experiment 3 tested seven individual essential oils (Roman chamomile, sage, fennel seed, rosemary, thyme, anise, and lavender) plus a blank control against a mixture of attractant (AA+2 MB) using the W•H•Y traps (both attractant and repellent candidates were released from the top chamber) for eight consecutive days from late August to early September. Experiment 4 tested two essential oil mixtures (3EO-mix: clove, geranium, and lemongrass in ca. 1:1:1 ratio; and 4EO-mix: clove, geranium, lemongrass, and rosemary in ca. 1:1:1:1 ratio) plus a blank control against a mixture of attractant (AA+2 MB) using the W•H•Y traps (both attractant and repellent candidates were released from the top chamber) for 13 consecutive days in September; the essential oil mixtures alone without attractant were tested in the same experiment.

[2] = test system: worker antennae of Vespula pensylvanica, Dolichovespula maculata, Polistes dominulus, and P. aurifer; experiment: GC-EAD/MS analysis of SPME headspace samples of essential oils: antennal responses; conditions: for antennal (EAD) response to component of rosemary oil: V. pensylvanica and D. maculata antennae, FIG. 3; for antennal (EAD) response to component of spearmint oil / antennal (EAD) response to component of geranium oil / antennal (EAD) response to component of pennyroyal oil: V. pensylvanica, D. maculata, P. dominulus, or P. aurifer antennae; for antennal (EAD) response to component of lemongrass oil: antennae of V. pensylvanica, D. maculata, and Polistes dominulus, FIG. 2
Method: Headspace volatiles from greater than 10 types of essential oils (1 ml each in a closed 20 ml glass vial) were sampled via Solid-Phase Micro-Extraction (SPME) (CAR/PDMS, 85 μm, Supelco, Bellefonte, Pa.) for 20-30 sec before GC-EAD and GC-MS analyses.
Paper wasp [European paper wasp (Polistes dominulus) or golden paper wasp (P. aurifer)] and yellowjacket [Western yellowjacket (Vespula pensylvanica) or Bald-faced hornet (Dolichovespula maculata)] workers for electrophysiological study were collected from their nests and kept alive at 4° C. before testing.
SPME samples of the various essential oils were injected splitless into a Varian CP-3800 GC equipped with a polar column (HP-INNOWAX; 30 m×0.53 mm×1.0 μm film thickness; Agilent Technologies, Wilmington, Del., USA) and a 1:1 effluent splitter that allowed simultaneous flame ionization detection (FID) and electroantennographic detection (EAD) of either a yellowjacket or paper wasp worker antenna to the separated volatile compounds. Helium was used as the carrier gas, and the injector and detector temperatures were 250° C. and 300° C., respectively. Column temperature was 50° C. for 1 min, rising to 240° C. at 10° C./min, and then held for 10 min. The outlet for the EAD was held in a humidified air stream flowing at 0.5 m/sec over the antennal preparation. EAD recordings were made using silver wire-glass capillary electrodes filled with Beadle-Ephrussi Ringer on freshly cut antennae. The antennal signals were stored and analyzed on a PC equipped with a serial IDAC interface box and the program EAD ver. 2.5 (Syntech, Hilversum, The Netherlands).
Compounds were identified by comparison of retention times with those of authentic standards and with mass spectra of standards.

[3] = test system: Paper wasps (mainly Polistes dominulus, plus a few of P. aurifer); experiment: Field trapping, Rescue W•H•Y traps baited with attractant AA/2MB: captures of paper wasps; format: in vivo; conditions: for Mean/trap/visit ± SE Paper wasps: attractant AA/2MB alone (row AA/2MB) or plus chemical, N 9; for decrease of trap catches of paper wasps: Experiment 9
Method: as §1, §2

[4] = Table 9, Experiment 10, 18 days end of September through mid-October
[5] = V. pensylvanica and P. dominulus worker antennae
[6] = Table 7, Experiment 8, 13 days in September
[7] = Table 8, Experiment 9, 13 days in September

CC(C)=CCCC(C)CC=O (stereo not shown) [Citronellal, citronellal]
Mean/trap/visit ± SE Yellowjackets [1, 4]: 11.4 ± 5.2 bc wasps/trap/visit | antennal (EAD) response to component of citronella oil [2, 5]: strong and repeatable antennal responses | Mean/trap/visit ± SE Paper wasps [3, 4]: 0.4 ± 0.2 a wasps/trap/visit

CC12CCC(CC1)C(C)(C)O2 [1,8-Cineole, 1,8-cineole]
repellency at the doses tested ([1]; Experiment 8, AA/2 MB): not significantly repellent | Mean/trap/visit ± SE Yellowjackets [1, 6]: 18.2 ± 4.1 b wasps/trap/visit | antennal (EAD) response to component of rosemary oil [2]: significant EAD-responses | antennal (EAD) response to component of lavender oil [2, 5]: strong and repeatable antennal responses | antennal (EAD) response to component of sage oil [2, 5]: strong and repeatable antennal responses | antennal (EAD) response to component of spearmint oil [2]: significant and consistent EAD-responses | Mean/trap/visit ± SE Paper wasps [3, 6]: 4.6 ± 1.8 a wasps/trap/visit

CC(C)[C@@H]1CC[C@@H](C)CC1=O [Menthone, menthone]
yellowjackets caught, attractant plus compound versus attractant alone ([1]; Experiment 8, AA/2 MB): four times less | Mean/trap/visit ± SE Yellowjackets [1, 6]: 7.7 ± 3.4 a wasps/trap/visit | antennal (EAD) response to component of geranium oil [2]: significant and consistent EAD-responses | antennal (EAD) response to component of pennyroyal oil [2]: significant and consistent EAD-responses | trap catch reduction to the paper wasps ([3]; Experiment 8, AA/2 MB, not statistically different from the attractant alone): > 50% | Mean/trap/visit ± SE Paper wasps [3, 6]: 2.1 ± 1.3 a wasps/trap/visit

C=CC(C)(O)CCC=C(C)C (stereo not shown) [Linalool, linalool]
repellency at the doses tested ([1]; Experiment 8, AA/2 MB): not significantly repellent | Mean/trap/visit ± SE Yellowjackets [1, 6]: 23.9 ± 4.0 b wasps/trap/visit | antennal (EAD) response to component of lavender oil [2, 5]: strong and repeatable antennal responses | antennal (EAD) response to component of ylang ylang oil [2, 5]: strong and repeatable antennal responses | antennal (EAD) response to component of lemongrass oil [2]: strongly responded | Mean/trap/visit ± SE Paper wasps [3, 6]: 5.2 ± 3.5 a wasps/trap/visit

COC(=O)c1ccccc1 [Methyl benzoate, methyl benzoate]
Mean/trap/visit ± SE Yellowjackets [1, 4]: 5.2 ± 2.2 ab wasps/trap/visit | antennal (EAD) response to component of ylang ylang oil [2, 5]: strong and repeatable antennal responses | Mean/trap/visit ± SE Paper wasps [3, 4]: 1.9 ± 0.8 ab wasps/trap/visit

CC(C)=CCC/C(C)=C\C=O [Z-citral]
antennal (EAD) response to component of lemongrass oil [2]: strongly responded

C=CCc1ccc(O)c(OC)c1 [Eugenol, eugenol]
reduction of trap catches of yellowjackets ([1]; AA/2 MB): > 95% | Mean/trap/visit ± SE Yellowjackets [1, 7]: 1.7 ± 0.7 a wasps/trap/visit | antennal (EAD) response to component of clove oil [2, 5]: strong and repeatable antennal responses | decrease of trap catches of paper wasps ([3]; AA/2 MB): 58% | Mean/trap/visit ± SE Paper wasps [3, 7]: 2.0 ± 0.5 ab wasps/trap/visit

CC(C)=C1CC[C@@H](C)CC1=O [Pulegone, pulegone]
Mean/trap/visit ± SE Yellowjackets [1, 4]: 6.4 ± 1.8 abc wasps/trap/visit | antennal (EAD) response to component of pennyroyal oil [2]: significant and consistent EAD-responses | Mean/trap/visit ± SE Paper wasps [3, 4]: 0.2 ± 0.1 a wasps/trap/visit

CC(C)=CCC/C(C)=C/COC=O [Geranyl formate, geranyl formate]
repellency at the doses tested ([1]; Experiment 8, AA/2 MB): not significantly repellent | Mean/trap/visit ± SE Yellowjackets [1, 6]: 28.2 ± 7.0 b wasps/trap/visit | antennal (EAD) response to component of geranium oil [2]: significant and consistent EAD-responses | Mean/trap/visit ± SE Paper wasps [3, 6]: 5.8 ± 2.7 a wasps/trap/visit

CC(=O)CCC=C(C)C [6-Methyl-5-hepten-2-one, 6-methyl-5-hepten-2-one]
repellency at the doses tested ([1]; Experiment 8, AA/2 MB): not significantly repellent | Mean/trap/visit ± SE Yellowjackets [1, 6]: 21.9 ± 3.8 b wasps/trap/visit | antennal (EAD) response to component of lemongrass oil [2]: strongly responded | Mean/trap/visit ± SE Paper wasps [3, 6]: 4.8 ± 2.3 a wasps/trap/visit

CCCCCC(O)CC (stereo not shown) [3-Octanol, 3-octanol]
Mean/trap/visit ± SE Yellowjackets [1, 4]: 6.9 ± 2.4 ab wasps/trap/visit | antennal (EAD) response to component of pennyroyal oil [2]: significant and consistent EAD-responses | antennal (EAD) response to component of spearmint oil [2]: significant and consistent EAD-responses | Mean/trap/visit ± SE Paper wasps [3, 4]: 1.1 ± 0.8 a wasps/trap/visit

CC(C)=CCC/C(C)=C/C=O [E-citral]
antennal (EAD) response to component of lemongrass oil [2]: strongly responded

cis/trans-rose oxides
antennal (EAD) response to component of geranium oil [2]: significant and consistent EAD-responses

COC(=O)c1ccccc1O [Methyl salicylate, methyl salicylate]
Mean/trap/visit ± SE Yellowjackets [1, 4]: 4.7 ± 2.0 ab wasps/trap/visit | antennal (EAD) response to component of wintergreen oil ([2]; V. pensylvanica antennae, FIG. 12): strong antennal response | Mean/trap/visit ± SE Paper wasps [3, 4]: 0.9 ± 0.5 a wasps/trap/visit

E/Z-citral
reduction of trap catches of yellowjackets ([1]; AA/2 MB): more than 70% | Mean/trap/visit ± SE Yellowjackets [1, 7]: 11.6 ± 5.8 a wasps/trap/visit | decrease of trap catches of paper wasps ([3]; AA/2 MB): 88% | Mean/trap/visit ± SE Paper wasps [3, 7]: 0.6 ± 0.3 a wasps/trap/visit

C=C1CC[C@@H]2[C@H]1[C@H]1[C@H](C(C)C)CC[C@]12C [β-bourberene]
antennal (EAD) response to component of geranium oil [2]: significant and consistent EAD-responses

CC1=CCC2CC1C2(C)C (stereo not drawn) [α-pinene]
antennal (EAD) response to component of rosemary oil [2]: significant EAD-responses | antennal (EAD) response to component of sage oil [2, 5]: strong and repeatable antennal responses

CC(=O)OCc1ccccc1 [Benzyl acetate, benzyl acetate]
Mean/trap/visit ± SE Yellowjackets [1, 4]: 8.2 ± 3.0 abc wasps/trap/visit | antennal (EAD) response to component of ylang ylang oil [2, 5]: strong and repeatable antennal responses | Mean/trap/visit ± SE Paper wasps [3, 4]: 0.9 ± 0.5 a wasps/trap/visit

Cc1ccc(C(C)C)cc1 [p-cymene]
antennal (EAD) response to component of sage oil [2, 5]: strong and repeatable antennal responses

CCCCCC(=O)CCC [4-nonanone]
antennal (EAD) response to component of lemongrass oil [2]: strongly responded

CC(C)=CCCC(C)CCOC=O (stereo not shown) [citronyl formate, citronellyl formate]
antennal (EAD) response to component of geranium oil [2]: significant and consistent EAD-responses
